From patent publication US5677291A, “Method of lowering serum cholesterol levels with 2,6-di-alkyl-4-silyl-phenols” (Hoechst Marion Roussel, Inc., priority 1996, dated 1997)

Experiments:
Format in all cases: in vivo, New Zealand White rabbit
[1] = system: 0.2% Cholesterol-Fed New Zealand White Rabbits; assay: Liver weight / body weight ratio in 0.2% cholesterol-fed rabbits, concurrent 0.4% drug (Example 20); conditions: 0.2% cholesterol/0.4% drug diet
Text: (§1) NZW rabbits (female, aged 3-4 months, weighing less than 3 Kg), six in each group, were fed a control diet of 0.2% cholesterol (100 g rabbit chow daily containing 0.2 g cholesterol) or a diet of 0.2% cholesterol/0.4% drug (100 g rabbit chow daily containing 0.2 g cholesterol and 0.4 g of drag). For Compound A, the rabbits were sacrificed by intravenous injection of pentobarbital after 56 days. For Compound G, K, E and H, the rabbits were sacrificed by intravenous injection of pentobarbital after 7 days. Plasma or serum was collected and cholesterol levels were determined using the enzymatic method of Mao, et at., Clin. Chem. (1983) 29:1890-1897. Liver weight and body weights were determined. Serum HDL and LDL cholesterol levels were determined using gel filtration HPLC modified from Kieft, K. A., et at., J. Lipid Res., 32:859-861 (1991), using Roche enzymatic cholesterol reagents. Triglyceride levels were determined by Cobas Automated Analyzer using Roche enzymatic reagents.

[2] = system: 1% Cholesterol-Fed New Zealand White Rabbits; assay: Reduction of cholesterol levels of 1% cholesterol-fed rabbits by concurrent administration of 0.5% Compound A (Example 18); conditions: 1% cholesterol/0.5% drug diet; for Cholesterol: plasma or serum, n = 6
Description: New Zealand Whim (NZW) rabbits (female, aged 3-4 months, weighing less than 3 kg) six in each group, were fed a control diet of 1% cholesterol (100 g rabbit chow daily containing 1 g cholesterol) or a diet of 1% cholesterol/0.5% drag (100 g rabbit chow daily containing 1 g cholesterol and 0.5 g Compound A). After 56 days, the rabbits were sacrificed by intravenous injection of pentobarbital. Plasma or serum was collected and cholesterol levels were determined using the enzymatic method of Mao, et at., Clin. Chem. (1983) 29:1890-1897.

[3] = system: 0.2% Cholesterol-Fed New Zealand White Rabbits; assay: Serum total, LDL and HDL cholesterol and triglycerides in 0.2% cholesterol-fed rabbits, concurrent 0.4% drug (Example 20); parameters: triglycerides: reference not given here; conditions: 0.2% cholesterol/0.4% drug diet; for cholesterol (total) % Control / HDL cholesterol % Control / LDL cholesterol % Control: % of control; for HDL cholesterol % Control / LDL cholesterol % Control: serum, gel filtration HPLC
Text: as §1

[4] = system: Normolipidemic New Zealand Rabbits; assay: Reduction in cholesterol levels of normolipidemic rabbits by concurrent administration of 0.5% Compound A (Example 21); conditions: normal diet with 0.5% drug; for Cholesterol: serum, n = 4
Description: New Zealand White rabbits (female, aged 3-4 months, weighing less than 3 kg), four in each group, were fed a normal diet (100 g rabbit chow daily) or a diet of 0.5% drug (100 g rabbit chow daily containing 0.5 g Compound A). Serum was collected and cholesterol levels were determined according to the method of Mao, et at., Clin. Chem. (1983) 29:1890-1897.

[5] = system: 0.2% Cholesterol-Fed New Zealand White Rabbits; assay: Reduction of cholesterol levels of 0.2% cholesterol-fed rabbits by concurrent administration of 0.4% Compound A (Example 19); conditions: for Cholesterol: plasma or serum, n = 6
Description: NZW rabbits (female, aged 3-4 months, weighing less than 3 Kg), six in each group, were fed a control diet of 0.2% cholesterol (100 g rabbit chow daily containing 0.2 g cholesterol) or a diet of 0.2% cholesterol/0.4% drag (100 g rabbit chow daily containing 0.2 g cholesterol and 0.4 g Compound A). After 56 days, the rabbits were sacrificed by intravenous injection of pentobarbital. Plasma or serum was collected and cholesterol levels were determined using the enzymatic method of Mao, et at., Clin. Chem. (1983) 29: 1890-1897.

CC(C)(C)c1cc(SC[Si](C)(C)c2ccccc2)cc(C(C)(C)C)c1O [Compound A, 2,6-Di-t-butyl-4[(dimethylphenylsilyl)methylthio]phenol]
liver wt/body wt ratio ([1]; 56 days): 120%
Cholesterol ([2]; day 0): 59 ± 8 mg/dL
Cholesterol ([2]; day 14): 684 ± 99 mg/dL
Cholesterol ([2]; day 28): 954 ± 126 mg/dL
Cholesterol ([2]; day 42): 1118 ± 164 mg/dL
Cholesterol ([2]; day 56): 1035 ± 152 mg/dL
reduction of serum cholesterol ([2]; day 56, vs control): 57%
triglycerides ([3]; 56 days): 366%
cholesterol (total) % Control ([3]; 56 days): 52%
HDL cholesterol % Control ([3]; 56 days): 75%
LDL cholesterol % Control ([3]; 56 days): 42%
Cholesterol ([4]; day 0): 43.5 ± 4 mg/dL
Cholesterol ([4]; day 8): 69.7 ± 6 mg/dL
Cholesterol ([4]; day 14): 54.8 ± 8 mg/dL
level of cholesterol significantly reduced by ([4]; day 23, compared to control rabbits): about 29%
Cholesterol ([4]; day 23): 58.3 ± 6 mg/dL
reduction of cholesterol ([5]; 56 days, 0.2% cholesterol/0.4% drug diet): 64%
cholesterol lowering (in words) ([5]; administration for 56 days, 0.2% cholesterol-fed rabbits): significant cholesterol lowering
Cholesterol ([5]; day 0, 0.2% cholesterol/0.4% drug diet): 66 ± 8 mg/dL
Cholesterol ([5]; day 7, 0.2% cholesterol/0.4% drug diet): 154 ± 17 mg/dL
Cholesterol ([5]; day 14, 0.2% cholesterol/0.4% drug diet): 223 ± 32 mg/dL
Cholesterol ([5]; day 28, 0.2% cholesterol/0.4% drug diet): 291 ± 59 mg/dL
Cholesterol ([5]; day 42, 0.2% cholesterol/0.4% drug diet): 357 ± 89 mg/dL
Cholesterol ([5]; day 56, 0.2% cholesterol/0.4% drug diet): 337 ± 100 mg/dL

CC(C)(C)c1cc(OC[Si](C)(C)c2ccccc2)cc(C(C)(C)C)c1O [Compound G]
liver wt/body wt ratio ([1]; 7 days): 104%
triglycerides ([3]; 7 days): 104%
cholesterol (total) % Control ([3]; 7 days): 72%
HDL cholesterol % Control ([3]; 7 days): 81%
LDL cholesterol % Control ([3]; 7 days): 69%

COc1ccc([Si](C)(C)COc2cc(C(C)(C)C)c(O)c(C(C)(C)C)c2)cc1 [Compound H, 2,6-Di-t-butyl-4[(dimethyl-4-methoxyphenylsilyl)methyloxy]phenol]
liver wt/body wt ratio ([1]; 7 days): 110%
triglycerides ([3]; 7 days): 73%
cholesterol (total) % Control ([3]; 7 days): 54%
HDL cholesterol % Control ([3]; 7 days): 123%
LDL cholesterol % Control ([3]; 7 days): 66%

COc1ccccc1[Si](C)(C)COc1cc(C(C)(C)C)c(O)c(C(C)(C)C)c1 [Compound K, 2,6-Di-t-butyl-4-[(dimethy 1-2-methoxyphenylsilyl)methyloxy]phenol]
liver wt/body wt ratio ([1]; 7 days): 90%
triglycerides ([3]; 7 days): 131%
cholesterol (total) % Control ([3]; 7 days): 77%
HDL cholesterol % Control ([3]; 7 days): 217%
LDL cholesterol % Control ([3]; 7 days): 61%

CC(C)(C)c1cc(OC[Si](C)(C)c2ccc(Cl)cc2)cc(C(C)(C)C)c1O [E, 2,6 Di-t-butyl-4[(4-chlorophenyldimethylsilyl)methyloxy]phenol]
liver wt/body wt ratio ([1]; 7 days): 93%
triglycerides ([3]; 7 days): 82%
cholesterol (total) % Control ([3]; 7 days): 87%
HDL cholesterol % Control ([3]; 7 days): 109%
LDL cholesterol % Control ([3]; 7 days): 89%
